Results from US20240050342A1, “PROLIPID COMPOSITION FOR PERSONALIZED BENEFITS AND METHOD FOR USING THE SAME” (Conopco, Inc., d/b/a UNILEVER, priority 2020, published 2024).

Experiments:
[1] = tested on: EpiDerm in vitro 3D skin equivalents of keratinocytes; test: Elongation of deuterated d23-Lauric acid in EpiDerm 3D skin equivalents (LC/MS/MS); type: cell-based, human; conditions: for d23 C12:0 signal: lauric acid prior to elongation
Method: In this experiment, EpiDerm in vitro 3D skin equivalents of keratinocytes (commercially available from Matek) were used as a model system to investigate bioconversions in human skin. The skin equivalents were topically treated with deuterated d23-Lauric acid (dC12:0) in propylene glycol:ethanol (70:30), one time per day for seven days with concentrations in the range of 400 ng/cm^2 to 5000 ng/cm^2. Samples were harvested, extracted and analyzed via liquid chromatography/tandem mass-spectrometry (LC/MS/MS) for deuterated d23-Lauric acid elongation. Precursor-to-product (i.e., elongation) ion transitions, specific to deuterated elongated fatty acids derived from d23 Lauric acid, were identified and measured. The first column depicts the signal for lauric acid provided to the EpiDerm prior to elongation.

human skin discards = test: Sphingosine/ceramide formation from deuterated palmitic acid in ex vivo human skin model (LC/MS/MS); type: cell-based
Method: In this experiment, a standard topical base composition was charged with 3% by weight deuterated d31palmitic acid and a second base was charged with 3% by weight deuterated d31palmitic acid in combination with 3% by weight 12-hydroxystearic acid. Both compositions were applied to separate human skin discards. Biopsies were taken, placed on collagen and incubated at 37° C. with about 5% carbon dioxide. Samples were harvested after 5 days, extracted, and fractionated to obtain ceramide fractions. Elongation of deuterated d31Palmitic acid (dC16:0) with and without the PPAR activator 12-hydroxystearic acid was investigated in an ex vivo human skin model. The ceramide fraction obtained was hydrolyzed to release deuterated sphingosine and analyzed via liquid chromatography/tandem mass-spectrometry (LC/MS/MS). This technique was used to identify and measure “precursor-to-product” ion transitions specific to deuterated sphingosine, and therefore, to track sphingosine formation from deuterated palmitic acid applied to skin discards. Unexpectedly, the amount of resulting deuterated sphingosine increased in the presence the PPAR activator. The numbers in units (“u”) provided depict the signal abundance of the biomolecules looked and accounted for in a sample as determined by LC/MS/MS. […]

[2] = tested on: neonatal keratinocyte model; test: Elongation of deuterated d31-Palmitic acid with and without 12-hydroxystearic acid in neonatal keratinocyte model (LC/MS/MS); type: cell-based
Method: In this experiment the elongation of deuterated d31-Palmitic acid (dC16:0) with and without PPAR activator 12-hydroxystearic was investigated in a neonatal keratinocyte model. Keratinocytes were grown in an EpiLife™ medium (with calcium, from Thermo Fisher Scientific) in six well plate formats until confluency. Confluent keratinocytes were differentiated with CaCl2 treatment. The cells in wells deplete of PPAR activator were treated with the substrate: 1 uM of d31-Palmitic acid (dC16:0) every second or third day until harvested on day 7. The remainder of the samples were treated with 1 uM of the aforementioned dC16:0 and 12 hydroxystearic acid at the concentrations shown in the tables. Samples were extracted and analyzed via liquid chromatography/tandem mass-spectrometry (LC/MS/MS) for deuterated d31-Palmitic acid (dC16:0) elongation. Precursor-to-product ion transitions, specific to deuterated elongated fatty acids derived from d31-Palmitic acid, were identified and measured.

[3] = 400 ng/cm2, once per day for seven days
[4] = 1000 ng/cm2, once per day for seven days
[5] = 5000 ng/cm2 dC12:0, once per day for seven days
[6] = 1 uM d31-Palmitic acid, No 12 HSA, harvested day 7
[7] = 12HSA 3 uM with 1 uM dC16:0, harvested day 7
[8] = 12HSA 10 uM with 1 uM dC16:0, harvested day 7
[9] = 12HSA 30 uM with 1 uM dC16:0, harvested day 7
[10] = 12HSA 100 uM with 1 uM dC16:0, harvested day 7

Compound: [2H]C([2H])([2H])C([2H])([2H])C([2H])([2H])C([2H])([2H])C([2H])([2H])C([2H])([2H])C([2H])([2H])C([2H])([2H])C([2H])([2H])C([2H])([2H])C([2H])([2H])C(=O)O [dC12:0, d23-Lauric acid]
- d23 C14:0 signal [1, 3]: 4670 u
- d23 C16:0 signal [1, 3]: 46204 u
- d23 C18:0 signal [1, 3]: 140851 u
- d23 C20 signal [1, 3]: 20848 u
- d23 C22:0 signal [1, 3]: 45885 u
- d23 C24:0 signal [1, 3]: 68863 u
- d23 C12:0 signal [1, 3]: 24559 u
- d23 C14:0 signal [1, 4]: 7481 u
- d23 C16:0 signal [1, 4]: 338885 u
- d23 C18:0 signal [1, 4]: 467624 u
- d23 C20 signal [1, 4]: 54050 u
- d23 C22:0 signal [1, 4]: 128640 u
- d23 C24:0 signal [1, 4]: 187974 u
- d23 C12:0 signal [1, 4]: 51904 u
- d23 C14:0 signal [1, 5]: 53655 u
- d23 C16:0 signal [1, 5]: 1026969 u
- d23 C18:0 signal [1, 5]: 1355969 u
- d23 C20 signal [1, 5]: 227595 u
- d23 C22:0 signal [1, 5]: 513274 u
- d23 C24:0 signal [1, 5]: 758093 u
- d23 C12:0 signal [1, 5]: 528578 u
- bioconversion/elongation of dC12:0 in skin equivalents ([1]; enzymes present in the skin equivalents): convert to dC16:0 via fatty acid synthase enzyme, followed by further elongation of dC16:0 to deuterated Lignoceric acid C24:0

Compound: [2H]C([2H])([2H])C([2H])([2H])C([2H])([2H])C([2H])([2H])C([2H])([2H])C([2H])([2H])C([2H])([2H])C([2H])([2H])C([2H])([2H])C([2H])([2H])C([2H])([2H])C([2H])([2H])C([2H])([2H])C([2H])([2H])C([2H])([2H])C(=O)O [deuterated palmitic acid, d31-Palmitic acid]
- Deuterated Sphingosine signal abundance (human skin discards; hydrolyzed ceramide fraction, composition with 3% by weight of each ingredient applied to human skin discards, harvested after 5 days, 37° C.): 36,958 u
- dC16:0 signal [2, 6]: 646987 u
- dC18:0 signal [2, 6]: 663577 u
- dC20:0 signal [2, 6]: 11233 u
- dC22:0 signal [2, 6]: 90496 u
- dC24:0 signal [2, 6]: 278426 u
- dC26:0 signal [2, 6]: 60009 u

Compound: CCCCCCC(O)CCCCCCCCCCC(=O)O (stereo not shown) [12HSA, 12-hydroxystearic acid]
- amount of resulting deuterated sphingosine in the presence of the PPAR activator (human skin discards; 3% 12-hydroxystearic acid with 3% d31palmitic acid vs d31palmitic acid alone): increased
- dC16:0 signal [2, 7]: 486506 u
- dC18:0 signal [2, 7]: 710249 u
- dC20:0 signal [2, 7]: 11478 u
- dC22:0 signal [2, 7]: 94091 u
- dC24:0 signal [2, 7]: 294398 u
- dC26:0 signal [2, 7]: 60180 u
- dC16:0 signal [2, 8]: 503533 u
- dC18:0 signal [2, 8]: 713499 u
- dC20:0 signal [2, 8]: 13666 u
- dC22:0 signal [2, 8]: 98634 u
- dC24:0 signal [2, 8]: 306176 u
- dC26:0 signal [2, 8]: 62141 u
- dC16:0 signal [2, 9]: 921997 u
- dC18:0 signal [2, 9]: 792317 u
- dC20:0 signal [2, 9]: 18245 u
- dC22:0 signal [2, 9]: 131062 u
- dC24:0 signal [2, 9]: 470314 u
- dC26:0 signal [2, 9]: 109818 u
- dC16:0 signal [2, 10]: 677241 u
- dC18:0 signal [2, 10]: 750585 u
- dC20:0 signal [2, 10]: 75060 u
- dC22:0 signal [2, 10]: 201806 u
- dC24:0 signal [2, 10]: 774622 u
- dC26:0 signal [2, 10]: 219006 u
- effect on formation of elongated fatty acids from d31-Palmitic acid ([2]; compared to samples deplete of the activator): boosts and enhances the formation of elongated fatty acids from d31C16:0 to d31C26:0
